Data reported in ChEMBL document CHEMBL6078670, “Discovery of a potent and selective TRPC3 antagonist with neuroprotective effects” (Bioorg Med Chem, 2025).
Values after ≈ are worked out from the molar mass of the structure shown. Active and inactive are the calls of the source. No cut-off for these calls is given here.

Legend:
[1] = target: T1, Short transient receptor potential channel 3 (Homo sapiens) (UniProt Q13507); assay: Antagonist activity at human TRPC3 expressed in HEK293 cells assessed as inhibition of carbachol-induced activity at 10 uM measured after 48 hrs by Whole-cell patch clamp electrophysiology relative to control; format: cell-based
T1 sequence (whole entry): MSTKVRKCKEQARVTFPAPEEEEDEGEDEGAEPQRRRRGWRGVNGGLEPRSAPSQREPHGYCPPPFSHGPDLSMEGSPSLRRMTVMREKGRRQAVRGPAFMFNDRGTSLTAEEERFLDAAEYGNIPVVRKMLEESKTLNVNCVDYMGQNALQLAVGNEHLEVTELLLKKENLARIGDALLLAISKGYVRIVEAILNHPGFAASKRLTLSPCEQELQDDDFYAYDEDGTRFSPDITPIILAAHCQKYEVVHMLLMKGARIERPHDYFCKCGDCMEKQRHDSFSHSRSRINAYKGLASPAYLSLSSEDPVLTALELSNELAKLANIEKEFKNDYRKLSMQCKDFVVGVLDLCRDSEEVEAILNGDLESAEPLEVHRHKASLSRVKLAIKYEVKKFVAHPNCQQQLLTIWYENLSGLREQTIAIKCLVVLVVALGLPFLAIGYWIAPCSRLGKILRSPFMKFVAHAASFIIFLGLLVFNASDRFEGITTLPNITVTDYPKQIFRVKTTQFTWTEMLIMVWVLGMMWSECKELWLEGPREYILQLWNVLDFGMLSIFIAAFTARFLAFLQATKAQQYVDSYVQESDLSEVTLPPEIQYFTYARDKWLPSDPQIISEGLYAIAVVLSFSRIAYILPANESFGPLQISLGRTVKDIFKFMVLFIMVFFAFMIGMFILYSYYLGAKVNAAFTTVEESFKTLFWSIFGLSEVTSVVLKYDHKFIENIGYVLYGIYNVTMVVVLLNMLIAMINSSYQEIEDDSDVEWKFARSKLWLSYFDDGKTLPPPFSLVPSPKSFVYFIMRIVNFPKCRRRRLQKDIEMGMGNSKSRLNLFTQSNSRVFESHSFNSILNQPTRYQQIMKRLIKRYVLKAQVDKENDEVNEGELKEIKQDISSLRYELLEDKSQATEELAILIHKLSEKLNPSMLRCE

[2] = target: T2, Short transient receptor potential channel 6 (Homo sapiens) (UniProt Q9Y210); assay: Antagonist activity at human TRPC6 expressed in HEK293 cells assessed as inhibition of carbachol-induced activity at 10 uM measured after 48 hrs by Whole-cell patch clamp electrophysiology; format: cell-based
T2 sequence (whole entry): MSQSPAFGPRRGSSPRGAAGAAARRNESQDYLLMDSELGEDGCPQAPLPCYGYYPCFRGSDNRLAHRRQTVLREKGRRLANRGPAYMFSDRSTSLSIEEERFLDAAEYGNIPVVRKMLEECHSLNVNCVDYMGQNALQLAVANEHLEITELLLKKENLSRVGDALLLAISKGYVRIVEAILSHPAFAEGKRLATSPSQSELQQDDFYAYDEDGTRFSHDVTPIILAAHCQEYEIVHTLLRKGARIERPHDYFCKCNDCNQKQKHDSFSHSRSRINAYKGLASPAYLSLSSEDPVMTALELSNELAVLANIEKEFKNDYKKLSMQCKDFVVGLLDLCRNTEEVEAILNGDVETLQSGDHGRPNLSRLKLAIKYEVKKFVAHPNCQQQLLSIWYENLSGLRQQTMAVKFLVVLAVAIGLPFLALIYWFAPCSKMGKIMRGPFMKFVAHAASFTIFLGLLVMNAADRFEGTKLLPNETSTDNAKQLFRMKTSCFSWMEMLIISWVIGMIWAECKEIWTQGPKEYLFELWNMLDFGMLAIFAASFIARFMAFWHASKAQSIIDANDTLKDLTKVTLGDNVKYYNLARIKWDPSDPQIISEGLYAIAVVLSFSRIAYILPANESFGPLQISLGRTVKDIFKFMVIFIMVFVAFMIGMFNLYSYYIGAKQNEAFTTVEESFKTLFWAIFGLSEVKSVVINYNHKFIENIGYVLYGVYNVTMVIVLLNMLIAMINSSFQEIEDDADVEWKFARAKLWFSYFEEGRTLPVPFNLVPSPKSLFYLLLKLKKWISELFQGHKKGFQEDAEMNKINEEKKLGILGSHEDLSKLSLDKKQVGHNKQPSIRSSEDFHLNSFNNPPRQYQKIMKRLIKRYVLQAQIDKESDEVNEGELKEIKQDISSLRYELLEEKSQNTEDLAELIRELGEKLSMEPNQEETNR

[3] = target: T3, Short transient receptor potential channel 7 (Homo sapiens) (UniProt Q9HCX4); assay: Antagonist activity at human TRPC7 expressed in HEK293 cells assessed as inhibition of carbachol-induced activity at 10 uM measured after 48 hrs by Whole-cell patch clamp electrophysiology; format: cell-based
T3 sequence (whole entry): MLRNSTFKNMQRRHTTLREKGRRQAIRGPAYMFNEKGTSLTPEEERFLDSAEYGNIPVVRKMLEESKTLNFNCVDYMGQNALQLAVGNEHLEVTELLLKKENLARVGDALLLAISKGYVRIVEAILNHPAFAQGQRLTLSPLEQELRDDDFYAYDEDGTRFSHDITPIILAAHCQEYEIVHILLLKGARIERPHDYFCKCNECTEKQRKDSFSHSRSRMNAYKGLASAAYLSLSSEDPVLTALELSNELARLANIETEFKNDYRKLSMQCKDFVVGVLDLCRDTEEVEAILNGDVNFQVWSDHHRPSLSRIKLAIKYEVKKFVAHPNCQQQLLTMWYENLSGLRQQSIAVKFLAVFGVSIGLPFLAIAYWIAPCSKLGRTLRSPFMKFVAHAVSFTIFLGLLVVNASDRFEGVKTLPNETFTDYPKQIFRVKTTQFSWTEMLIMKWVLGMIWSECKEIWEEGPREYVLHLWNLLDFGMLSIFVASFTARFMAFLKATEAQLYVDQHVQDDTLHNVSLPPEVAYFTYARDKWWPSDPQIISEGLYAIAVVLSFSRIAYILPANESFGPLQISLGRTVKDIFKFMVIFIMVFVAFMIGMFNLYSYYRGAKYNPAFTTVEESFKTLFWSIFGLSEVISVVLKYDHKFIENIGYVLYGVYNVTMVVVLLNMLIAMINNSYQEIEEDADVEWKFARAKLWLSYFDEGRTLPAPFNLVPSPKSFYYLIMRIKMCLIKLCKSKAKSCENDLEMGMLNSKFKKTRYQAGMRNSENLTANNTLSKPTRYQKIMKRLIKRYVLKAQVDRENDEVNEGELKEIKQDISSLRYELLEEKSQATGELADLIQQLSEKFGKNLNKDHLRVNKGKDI

[4] = target: Short transient receptor potential channel 1 (Mus musculus) (UniProt Q61056); assay: Antagonist activity at mouse TRPC1 expressed in HEK293 cells assessed as inhibition of carbachol-induced activity at 10 uM measured after 48 hrs by Whole-cell patch clamp electrophysiology; format: cell-based
[5] = target: Short transient receptor potential channel 1 (Rattus norvegicus) (UniProt Q9QX01); assay: Antagonist activity at rat TRPC1 expressed in HEK293 cells assessed as inhibition of carbachol-induced activity at 10 uM measured after 48 hrs by Whole-cell patch clamp electrophysiology; format: cell-based
[6] = target: Transient receptor potential cation channel subfamily M member 8 (Rattus norvegicus) (UniProt Q8R455); assay: Antagonist activity at rat TRPM8 expressed in HEK293 cells assessed as inhibition of carbachol-induced activity at 10 uM measured after 48 hrs by Whole-cell patch clamp electrophysiology; format: cell-based
[7] = Kinetic solubility of the compound in ph 7.4 PBS buffer measured after 24 hrs shaken by HPLC and UPLC system; format: physicochemical; settings: read-out: Kinetic_solubility
Hippocampal neurone = assay: Rescuing beta-amyloid induced neuronal cell damage in Sprague-Dawley rat primary hippocampal cell culture (composed of 60% primary neuron, 20% microglia and 20% astrocyte) assessed as decrease in soluble oligomeric Abeta-containing media (7PA2 cells) induced synaptic toxicity at 250 nM; format: functional, cell-based
[8] = Cytotoxicity against Sprague-Dawley rat primary hippocampal cells at 100 nM; format: toxicity, cell-based; settings: hippocampal neurone, 0.1 µM

Short transient receptor potential channel 1 (Rattus norvegicus), sequence (Q9QX01 whole entry): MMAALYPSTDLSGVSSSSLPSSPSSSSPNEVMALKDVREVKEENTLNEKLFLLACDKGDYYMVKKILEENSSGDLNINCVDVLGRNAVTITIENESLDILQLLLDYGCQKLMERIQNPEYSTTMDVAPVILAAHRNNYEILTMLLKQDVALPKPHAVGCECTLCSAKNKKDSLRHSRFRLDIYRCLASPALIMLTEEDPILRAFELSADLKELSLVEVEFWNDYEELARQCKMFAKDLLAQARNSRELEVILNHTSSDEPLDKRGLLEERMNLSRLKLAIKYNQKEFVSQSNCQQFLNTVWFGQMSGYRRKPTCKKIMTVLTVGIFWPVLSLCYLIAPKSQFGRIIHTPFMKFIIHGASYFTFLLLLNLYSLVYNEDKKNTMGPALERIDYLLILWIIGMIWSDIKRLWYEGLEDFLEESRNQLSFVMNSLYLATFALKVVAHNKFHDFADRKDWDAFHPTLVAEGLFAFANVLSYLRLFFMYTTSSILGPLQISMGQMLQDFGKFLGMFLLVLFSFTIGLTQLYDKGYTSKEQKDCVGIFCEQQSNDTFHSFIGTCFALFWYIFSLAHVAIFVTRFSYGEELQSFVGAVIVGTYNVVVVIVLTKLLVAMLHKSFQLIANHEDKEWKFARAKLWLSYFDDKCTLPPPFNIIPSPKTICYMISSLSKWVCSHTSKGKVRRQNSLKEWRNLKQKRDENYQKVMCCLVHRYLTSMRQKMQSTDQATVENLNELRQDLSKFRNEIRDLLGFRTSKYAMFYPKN
Short transient receptor potential channel 1 (Mus musculus), sequence (Q61056 whole entry): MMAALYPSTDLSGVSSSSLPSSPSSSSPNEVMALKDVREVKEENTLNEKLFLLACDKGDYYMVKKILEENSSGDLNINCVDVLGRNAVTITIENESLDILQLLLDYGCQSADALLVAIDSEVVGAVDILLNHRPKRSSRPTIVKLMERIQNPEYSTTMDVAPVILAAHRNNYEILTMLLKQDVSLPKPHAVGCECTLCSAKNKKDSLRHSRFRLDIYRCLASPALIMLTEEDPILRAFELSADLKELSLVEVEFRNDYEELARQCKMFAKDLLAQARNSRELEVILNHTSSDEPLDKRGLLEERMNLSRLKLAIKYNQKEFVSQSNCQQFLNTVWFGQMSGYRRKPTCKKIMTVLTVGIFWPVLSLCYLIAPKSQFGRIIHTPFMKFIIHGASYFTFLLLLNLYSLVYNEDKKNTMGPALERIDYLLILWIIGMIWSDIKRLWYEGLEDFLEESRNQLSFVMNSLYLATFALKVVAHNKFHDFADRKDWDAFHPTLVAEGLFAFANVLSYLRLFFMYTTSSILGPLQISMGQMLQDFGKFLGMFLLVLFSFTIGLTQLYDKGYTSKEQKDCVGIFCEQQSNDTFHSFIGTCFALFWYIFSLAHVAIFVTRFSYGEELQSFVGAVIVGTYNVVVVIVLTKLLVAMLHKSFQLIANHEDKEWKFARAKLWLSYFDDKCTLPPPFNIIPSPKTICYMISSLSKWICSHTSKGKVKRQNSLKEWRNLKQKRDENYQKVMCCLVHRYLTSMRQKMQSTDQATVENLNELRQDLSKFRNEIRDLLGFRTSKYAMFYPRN
Transient receptor potential cation channel subfamily M member 8 (Rattus norvegicus), sequence (Q8R455 whole entry, looked up): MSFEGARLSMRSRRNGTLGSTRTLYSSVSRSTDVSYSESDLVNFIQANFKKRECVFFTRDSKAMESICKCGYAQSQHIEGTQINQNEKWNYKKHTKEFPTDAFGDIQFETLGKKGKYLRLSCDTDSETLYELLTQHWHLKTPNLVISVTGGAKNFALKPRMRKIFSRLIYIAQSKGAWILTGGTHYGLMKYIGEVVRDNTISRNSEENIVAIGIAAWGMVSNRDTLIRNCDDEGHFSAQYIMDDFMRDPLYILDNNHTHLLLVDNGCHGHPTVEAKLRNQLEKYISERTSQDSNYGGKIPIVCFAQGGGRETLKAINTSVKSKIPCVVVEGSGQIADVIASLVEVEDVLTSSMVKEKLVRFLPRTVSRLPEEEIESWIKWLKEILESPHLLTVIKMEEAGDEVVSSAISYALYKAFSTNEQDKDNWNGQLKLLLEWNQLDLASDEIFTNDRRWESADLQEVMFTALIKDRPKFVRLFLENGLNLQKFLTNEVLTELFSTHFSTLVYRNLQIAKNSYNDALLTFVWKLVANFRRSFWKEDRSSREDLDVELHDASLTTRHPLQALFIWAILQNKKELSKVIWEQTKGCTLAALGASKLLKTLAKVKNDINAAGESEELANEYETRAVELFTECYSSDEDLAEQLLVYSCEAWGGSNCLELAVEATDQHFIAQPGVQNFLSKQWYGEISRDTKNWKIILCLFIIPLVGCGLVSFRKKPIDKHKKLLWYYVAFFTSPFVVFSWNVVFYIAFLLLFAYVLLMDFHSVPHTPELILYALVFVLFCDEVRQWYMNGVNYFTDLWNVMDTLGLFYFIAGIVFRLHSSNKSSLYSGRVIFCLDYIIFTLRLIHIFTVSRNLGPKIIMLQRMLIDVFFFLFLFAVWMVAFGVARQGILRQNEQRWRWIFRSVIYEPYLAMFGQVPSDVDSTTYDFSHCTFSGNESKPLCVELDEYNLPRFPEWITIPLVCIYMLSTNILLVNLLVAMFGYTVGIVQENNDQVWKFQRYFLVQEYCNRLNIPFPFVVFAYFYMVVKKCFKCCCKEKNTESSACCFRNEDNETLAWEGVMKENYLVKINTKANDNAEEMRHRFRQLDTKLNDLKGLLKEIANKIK

| inhibition [1] | inhibition ([1]; filed as antagonist) | SMILES | also measured |
| --- | --- | --- | --- |
| < 80% | – | CCNC(=O)c1cnn(-c2ccc(-n3ccc(Cl)c(Cl)c3=O)cc2)c1S(C)(=O)=O | – |
| < 80% | – | CS(=O)(=O)c1cnn(-c2ccc(-n3ccc(Cl)c(Cl)c3=O)cc2)c1C(F)(F)F | – |
| – | > 90% | CCc1nnc(-c2cnn(-c3ccc(-n4ccc(Cl)c(Cl)c4=O)cc3)c2C(F)(F)F)o1 | – |
| – | > 90% | CCNC(=O)c1ncn(-c2ccc(-n3ccc(Cl)c(Cl)c3=O)cc2)c1C(F)(F)F | – |
| – | > 80% | CCNC(=O)c1cnn(-c2ccc(-n3ccc(C(F)(F)F)c(Cl)c3=O)cc2)c1C(F)(F)F | – |
| – | > 80% | O=C(c1cnn(-c2ccc(-n3ccc(Cl)c(Cl)c3=O)cc2)c1C(F)(F)F)N1CCCC1 | – |
| – | > 80% | CCNC(=O)c1cnn(-c2ccc(-n3ccc(Cl)c(Cl)c3=O)cc2)c1C#N | – |
| < 80% | – | CCOCc1cnn(-c2ccc(-n3ccc(Cl)c(Cl)c3=O)cc2)c1C(F)(F)F | – |
| – | > 90% | CC(C)CNC(=O)c1cnn(-c2ccc(-n3ccc(Cl)c(Cl)c3=O)cc2)c1C(F)(F)F | – |
| < 80% | – | CCNC(=O)c1sc(-c2ccc(-n3ccc(Cl)c(Cl)c3=O)cc2)nc1C(F)(F)F | – |
| – | > 80% | CCNC(=O)c1nn(-c2ccc(-n3ccc(Cl)c(Cl)c3=O)cc2)nc1C(F)(F)F | – |
| < 80% | – | CCNC(=O)c1cnn(-c2ccc(-n3ccc(Cl)c(Br)c3=O)cc2)c1C(F)(F)F | – |
| < 80% | – | CCCC(=O)c1cnn(-c2ccc(-n3ccc(Cl)c(Cl)c3=O)cc2)c1C(F)(F)F | – |
| – | > 80% | CCNC(=O)c1cnn(-c2ccc(-n3ccc(Cl)c(Cl)c3=O)cc2)c1C(F)(F)F | Activity [2]: inactive; Activity [3]: inactive; Activity [4]: inactive; Activity [5]: inactive; Activity [6]: inactive; solubility kinetic at 24 h [7]: 144 µM (≈ 64.1 µg/mL); Activity (Hippocampal neurone): Active; Activity [8]: Non-toxic |
| < 80% | – | NC(=O)c1cnn(-c2ccc(-n3ccc(Cl)c(Cl)c3=O)cc2)c1C(F)(F)F | – |
| – | > 80% | CCC(=O)Nc1cnn(-c2ccc(-n3ccc(Cl)c(Cl)c3=O)cc2)c1C(F)(F)F | – |

| inhibition [1] | inhibition ([1]; filed as antagonist) | SMILES | also measured |
| --- | --- | --- | --- |
| < 80% | – | CCNC(=O)c1nnn(-c2ccc(-n3ccc(Cl)c(Cl)c3=O)cc2)c1C(F)(F)F | – |
| – | > 80% | CCOC(=O)c1cnn(-c2ccc(NC(=O)C(Cl)=C(Cl)Cl)cc2)c1C(F)(F)F | Activity [2]: inactive; Activity [3]: inactive; Activity [4]: inactive; Activity [5]: inactive; Activity [6]: inactive |
| – | > 90% | CCN(CC)C(=O)c1cnn(-c2ccc(-n3ccc(Cl)c(Cl)c3=O)cc2)c1C(F)(F)F | – |
| – | > 80% | CCN(CC)Cc1cnn(-c2ccc(-n3ccc(Cl)c(Cl)c3=O)cc2)c1C(F)(F)F | – |
| < 80% | – | CCNC(=O)c1cnn(-c2ccc(-n3ccc(Cl)c(Cl)c3=O)cn2)c1C(F)(F)F | – |
| < 80% | – | CCNC(=O)c1cnn(-c2ccc(-n3ccc(OC)c(Cl)c3=O)cc2)c1C(F)(F)F | – |
| – | > 80% | CC(=O)c1cnn(-c2ccc(-n3ccc(Cl)c(Cl)c3=O)cc2)c1C(F)(F)F | – |
| – | > 90% | CCNC(=O)c1cnn(-c2ccc(-n3ccc(O)c(Cl)c3=O)cc2)c1C(F)(F)F | – |
| < 80% | – | O=C(NC1CC1)c1cnn(-c2ccc(-n3ccc(Cl)c(Cl)c3=O)cc2)c1C(F)(F)F | – |
| – | > 97% | CCNC(=O)c1cn(-c2ccc(-n3ccc(Cl)c(Cl)c3=O)cc2)nc1C(F)(F)F | – |
| < 80% | – | CC(C)NC(=O)c1cnn(-c2ccc(-n3ccc(Cl)c(Cl)c3=O)cc2)c1C(F)(F)F | – |
| – | > 97% | CCNC(=O)c1cnn(-c2ccc(-n3ccc(Cl)c(Cl)c3=O)cc2)c1 | – |
| < 80% | – | CCCCNC(=O)c1cnn(-c2ccc(-n3ccc(Cl)c(Cl)c3=O)cc2)c1C(F)(F)F | – |
| < 80% | – | CCNC(=O)c1cnn(-c2ccc(-n3ccc(Cl)c(Cl)c3=O)cc2)c1Cl | – |
| – | > 80% | CNC(=O)c1cnn(-c2ccc(-n3ccc(Cl)c(Cl)c3=O)cc2)c1C(F)(F)F | – |
| < 80% | – | CCCNC(=O)c1cnn(-c2ccc(-n3ccc(Cl)c(Cl)c3=O)cc2)c1C(F)(F)F | – |
